# Experiments:
# Type in all cases: cell-based
# Conditions in all cases: compounds at 50 nM and 500 nM
# [1] = biological target: T1, IKZF3 (Homo sapiens, UniProt Q96SW2+Q9UKT9); experiment: Western blot degradation of IKZF3 in hPBMCs (24 h)
# T1 construct: The supernatant was aspirated as the extracted total cell protein; endogenous in cells; host or cells: human peripheral blood mononuclear cells (hPBMCs)
# How it was run: (§1)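 Compounds were tested at 50 nM and 500 nM on hPBMCs (1×10^6 cells/mL) for 24 h, alongside DMSO. Proteins were detected by Western blot after denaturation at 95 °C; remaining protein computed from normalised band grayscale.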
# [2] = biological target: T2, WEE1 (Homo sapiens, UniProt P30291+Q96SW2); experiment: Western blot degradation of WEE1 in hPBMCs (24 h)
# T2 construct: The supernatant was aspirated as the extracted total cell protein; endogenous in cells; host or cells: human peripheral blood mononuclear cells (hPBMCs)
# How it was run: as §1
# [3] = biological target: T3, CK1α (Homo sapiens, UniProt P48729+Q96SW2); experiment: Western blot degradation of CK1α in hPBMCs (24 h)
# T3 construct: The supernatant was aspirated as the extracted total cell protein; endogenous in cells; host or cells: human peripheral blood mononuclear cells (hPBMCs)
# How it was run: as §1
# [4] = biological target: T4, GSPT1 (Homo sapiens, UniProt P15170+Q96SW2); experiment: Western blot degradation of GSPT1 in hPBMCs (24 h)
# T4 construct: The supernatant was aspirated as the extracted total cell protein; endogenous in cells; host or cells: human peripheral blood mononuclear cells (hPBMCs)
# How it was run: as §1
# [5] = biological target: T5, IKZF1 (Homo sapiens, UniProt Q13422+Q96SW2); experiment: Western blot degradation of IKZF1 in hPBMCs (24 h)
# T5 construct: The supernatant was aspirated as the extracted total cell protein; endogenous in cells; host or cells: human peripheral blood mononuclear cells (hPBMCs)
# How it was run: as §1
# [6] = biological target: T6, IKZF2 (Homo sapiens, UniProt Q96SW2+Q9UKS7); experiment: Western blot degradation of IKZF2 in hPBMCs (24 h)
# T6 construct: The supernatant was aspirated as the extracted total cell protein; endogenous in cells; host or cells: human peripheral blood mononuclear cells (hPBMCs)
# How it was run: as §1
# T2 sequence (P30291 whole entry): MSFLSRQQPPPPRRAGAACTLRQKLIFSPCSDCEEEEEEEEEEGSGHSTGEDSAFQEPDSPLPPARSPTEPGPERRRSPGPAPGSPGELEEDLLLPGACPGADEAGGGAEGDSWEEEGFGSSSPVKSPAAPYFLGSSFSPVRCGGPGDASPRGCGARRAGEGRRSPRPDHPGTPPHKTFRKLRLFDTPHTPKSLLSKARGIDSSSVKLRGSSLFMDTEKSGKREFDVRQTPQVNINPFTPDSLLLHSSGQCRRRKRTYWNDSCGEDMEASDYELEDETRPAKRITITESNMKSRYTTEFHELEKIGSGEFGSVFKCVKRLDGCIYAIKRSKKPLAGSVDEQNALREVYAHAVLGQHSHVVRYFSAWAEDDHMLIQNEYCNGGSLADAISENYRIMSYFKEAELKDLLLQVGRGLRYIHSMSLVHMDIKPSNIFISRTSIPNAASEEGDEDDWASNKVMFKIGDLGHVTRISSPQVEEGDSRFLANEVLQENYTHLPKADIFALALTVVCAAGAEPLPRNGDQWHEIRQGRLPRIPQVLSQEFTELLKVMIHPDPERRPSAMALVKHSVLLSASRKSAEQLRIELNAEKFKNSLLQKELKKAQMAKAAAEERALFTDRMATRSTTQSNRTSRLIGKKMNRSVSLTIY
# T2 sequence (Q96SW2 whole entry): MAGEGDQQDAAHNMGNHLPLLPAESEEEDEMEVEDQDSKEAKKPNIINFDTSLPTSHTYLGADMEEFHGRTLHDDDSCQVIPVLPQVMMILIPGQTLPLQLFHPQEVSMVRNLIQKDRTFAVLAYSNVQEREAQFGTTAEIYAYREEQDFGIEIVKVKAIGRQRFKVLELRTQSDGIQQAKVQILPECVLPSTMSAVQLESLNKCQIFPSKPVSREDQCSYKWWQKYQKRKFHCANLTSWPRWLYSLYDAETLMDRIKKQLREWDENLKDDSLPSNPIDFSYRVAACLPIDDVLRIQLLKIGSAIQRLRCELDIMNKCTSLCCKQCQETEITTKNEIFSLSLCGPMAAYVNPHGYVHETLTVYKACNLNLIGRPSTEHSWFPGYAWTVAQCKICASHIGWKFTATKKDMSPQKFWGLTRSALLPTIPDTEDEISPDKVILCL
# T2 sequence (Q16531 whole entry partner): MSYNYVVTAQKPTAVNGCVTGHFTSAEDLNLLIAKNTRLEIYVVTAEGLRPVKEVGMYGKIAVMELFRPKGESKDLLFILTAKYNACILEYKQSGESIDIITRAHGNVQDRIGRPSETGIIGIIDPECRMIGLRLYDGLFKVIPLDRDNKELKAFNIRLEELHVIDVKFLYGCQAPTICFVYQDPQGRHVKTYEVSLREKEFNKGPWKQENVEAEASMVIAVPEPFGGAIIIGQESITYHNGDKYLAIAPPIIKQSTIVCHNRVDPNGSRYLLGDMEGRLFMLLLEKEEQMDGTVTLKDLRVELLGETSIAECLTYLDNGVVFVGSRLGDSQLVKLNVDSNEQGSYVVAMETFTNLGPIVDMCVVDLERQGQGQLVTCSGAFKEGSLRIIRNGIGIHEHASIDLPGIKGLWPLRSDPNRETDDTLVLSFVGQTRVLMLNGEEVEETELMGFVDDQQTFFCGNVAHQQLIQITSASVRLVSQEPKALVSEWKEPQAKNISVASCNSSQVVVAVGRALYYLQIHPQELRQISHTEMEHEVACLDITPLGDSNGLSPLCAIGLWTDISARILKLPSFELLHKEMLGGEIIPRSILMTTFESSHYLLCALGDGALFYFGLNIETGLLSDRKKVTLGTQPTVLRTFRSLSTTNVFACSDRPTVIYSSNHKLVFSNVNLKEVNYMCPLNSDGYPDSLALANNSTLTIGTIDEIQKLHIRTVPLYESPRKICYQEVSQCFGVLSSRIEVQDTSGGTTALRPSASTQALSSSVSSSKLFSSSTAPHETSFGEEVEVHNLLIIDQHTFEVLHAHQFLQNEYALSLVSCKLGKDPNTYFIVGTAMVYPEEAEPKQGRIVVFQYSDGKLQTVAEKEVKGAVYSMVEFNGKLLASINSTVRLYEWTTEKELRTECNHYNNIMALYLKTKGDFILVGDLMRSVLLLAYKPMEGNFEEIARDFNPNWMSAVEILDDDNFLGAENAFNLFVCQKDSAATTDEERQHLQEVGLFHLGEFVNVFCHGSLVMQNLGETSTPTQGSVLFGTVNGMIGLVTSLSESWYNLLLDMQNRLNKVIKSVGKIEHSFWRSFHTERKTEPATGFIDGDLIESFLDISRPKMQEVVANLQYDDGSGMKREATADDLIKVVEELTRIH
# T3 sequence (P48729 whole entry): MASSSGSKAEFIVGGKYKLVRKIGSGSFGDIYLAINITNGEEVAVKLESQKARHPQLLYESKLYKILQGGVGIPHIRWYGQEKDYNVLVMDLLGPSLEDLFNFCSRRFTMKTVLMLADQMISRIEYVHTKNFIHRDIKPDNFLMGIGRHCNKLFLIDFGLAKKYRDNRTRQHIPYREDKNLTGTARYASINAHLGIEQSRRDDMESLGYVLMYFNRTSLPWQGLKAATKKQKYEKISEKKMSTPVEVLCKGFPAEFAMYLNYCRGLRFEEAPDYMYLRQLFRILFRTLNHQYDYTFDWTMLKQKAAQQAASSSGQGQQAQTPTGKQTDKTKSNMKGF
# T3 sequence (Q96SW2 whole entry): as the sequence (Q96SW2 whole entry) above
# T3 sequence (Q16531 whole entry partner): as the sequence (Q16531 whole entry partner) above
# T4 sequence (P15170 whole entry): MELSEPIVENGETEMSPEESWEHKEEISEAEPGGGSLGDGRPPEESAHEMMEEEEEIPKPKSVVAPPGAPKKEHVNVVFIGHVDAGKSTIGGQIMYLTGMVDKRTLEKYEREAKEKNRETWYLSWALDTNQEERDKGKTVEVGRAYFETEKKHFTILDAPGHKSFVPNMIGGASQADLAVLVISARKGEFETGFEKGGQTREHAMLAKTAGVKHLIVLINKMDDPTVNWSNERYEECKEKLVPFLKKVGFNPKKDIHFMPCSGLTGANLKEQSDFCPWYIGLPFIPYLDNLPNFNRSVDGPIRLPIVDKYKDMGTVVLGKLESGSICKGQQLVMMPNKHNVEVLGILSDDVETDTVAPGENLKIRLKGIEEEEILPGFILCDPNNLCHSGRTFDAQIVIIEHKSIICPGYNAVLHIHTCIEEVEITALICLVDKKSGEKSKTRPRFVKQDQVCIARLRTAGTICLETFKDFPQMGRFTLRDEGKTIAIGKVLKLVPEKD
# T4 sequence (Q96SW2 whole entry): as the sequence (Q96SW2 whole entry) above
# T4 sequence (Q16531 whole entry partner): as the sequence (Q16531 whole entry partner) above
# T1 sequence (Q9UKT9 whole entry): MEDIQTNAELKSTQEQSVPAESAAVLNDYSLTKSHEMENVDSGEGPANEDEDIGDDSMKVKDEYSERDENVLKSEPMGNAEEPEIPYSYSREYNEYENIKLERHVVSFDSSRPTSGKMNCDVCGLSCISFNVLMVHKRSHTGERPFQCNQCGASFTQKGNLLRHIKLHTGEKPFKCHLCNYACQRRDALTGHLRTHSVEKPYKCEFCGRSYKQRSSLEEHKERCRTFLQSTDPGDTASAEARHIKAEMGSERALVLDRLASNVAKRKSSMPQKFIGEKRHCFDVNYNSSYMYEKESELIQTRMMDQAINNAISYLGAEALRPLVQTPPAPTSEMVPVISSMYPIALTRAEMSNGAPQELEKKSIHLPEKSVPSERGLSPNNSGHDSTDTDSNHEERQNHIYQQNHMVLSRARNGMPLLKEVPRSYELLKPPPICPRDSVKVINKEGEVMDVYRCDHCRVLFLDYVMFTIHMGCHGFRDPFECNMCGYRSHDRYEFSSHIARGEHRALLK
# T1 sequence (Q96SW2 whole entry): as the sequence (Q96SW2 whole entry) above
# T1 sequence (Q16531 whole entry partner): as the sequence (Q16531 whole entry partner) above
# T6 sequence (Q9UKS7 whole entry): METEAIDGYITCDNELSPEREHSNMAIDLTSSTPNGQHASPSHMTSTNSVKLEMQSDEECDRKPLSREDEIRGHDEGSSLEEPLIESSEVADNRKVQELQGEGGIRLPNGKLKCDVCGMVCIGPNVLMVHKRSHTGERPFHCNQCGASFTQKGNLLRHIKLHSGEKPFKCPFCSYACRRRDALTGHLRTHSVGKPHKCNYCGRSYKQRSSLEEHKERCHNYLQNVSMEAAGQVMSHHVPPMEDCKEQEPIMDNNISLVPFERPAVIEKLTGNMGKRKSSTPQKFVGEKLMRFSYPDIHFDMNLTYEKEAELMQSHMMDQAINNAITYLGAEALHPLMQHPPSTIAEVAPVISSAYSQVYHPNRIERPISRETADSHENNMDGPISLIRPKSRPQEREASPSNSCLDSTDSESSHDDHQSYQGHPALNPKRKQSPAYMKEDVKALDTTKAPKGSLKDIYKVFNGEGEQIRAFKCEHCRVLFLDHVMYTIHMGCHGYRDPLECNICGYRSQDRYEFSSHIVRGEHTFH
# T6 sequence (Q96SW2 whole entry): as the sequence (Q96SW2 whole entry) above
# T6 sequence (Q16531 whole entry partner): as the sequence (Q16531 whole entry partner) above
SMILES,IKZF3 substrate protein remaining % [1],WEE1 substrate protein remaining % [2],CK1α substrate protein remaining % [3],GSPT1 substrate protein remaining % [4],IKZF1 substrate protein remaining % [5],IKZF2 substrate protein remaining % [6]
"Cc1cc(N2CCN(Cc3ccc4c(c3)C(=O)N(N3CCC(=O)NC3=O)C4=O)CC2)ccn1 [GT-07161, 2-(2,4-dioxotetrahydropyrimidin-1(2H)-yl)-5-((4-(2-methylpyridin-4-yl)piperazin-1-yl)methyl)isoindoline-1,3-dione]",B (80%< substrate protein remaining % ≤100%),B (80%< substrate protein remaining % ≤100%),B (80%< substrate protein remaining % ≤100%),A (0% ≤ substrate protein remaining % ≤80%),B (80%< substrate protein remaining % ≤100%),A (0% ≤ substrate protein remaining % ≤80%)
"O=C1CCN(N2Cc3cc(CN4CCN(c5cnnc(Cl)c5Cl)CC4)ccc3C2=O)C(=O)N1 [GT-07029, 1-(5-((4-(5,6-dichloropyridazin-4-yl)piperazin-1-yl)methyl)-1-oxoisoindolin-2-yl)dihydropyrimidine-2,4(1H,3H)-dione]",B (80%< substrate protein remaining % ≤100%),A (0% ≤ substrate protein remaining % ≤80%),B (80%< substrate protein remaining % ≤100%),A (0% ≤ substrate protein remaining % ≤80%),B (80%< substrate protein remaining % ≤100%),A (0% ≤ substrate protein remaining % ≤80%)
"O=C1CCN(N2Cc3cc(CN4CCN(c5nc(N6CCOCC6)nc6ccsc56)CC4)ccc3C2=O)C(=O)N1 [GT-08446, 1-(5-((4-(2-morpholinothieno[3,2-d]pyrimidin-4-yl)piperazin-1-yl)methyl)-1-oxoisoindolin-2-yl)dihydropyrimidine-2,4(1H,3H)-dione]",A (0% ≤ substrate protein remaining % ≤80%),B (80%< substrate protein remaining % ≤100%),B (80%< substrate protein remaining % ≤100%),A (0% ≤ substrate protein remaining % ≤80%),B (80%< substrate protein remaining % ≤100%),B (80%< substrate protein remaining % ≤100%)
"Cc1sc2ncnc(N3CCCN(Cc4ccc5c(c4)CN(N4CCC(=O)NC4=O)C5=O)CC3)c2c1C [GT-08062, 1-(5-((4-(5,6-dimethylthieno[2,3-d]pyrimidin-4-yl)-1,4-diazepan-1-yl)methyl)-1-oxoisoindolin-2-yl)dihydropyrimidine-2,4(1H,3H)-dione]",A (0% ≤ substrate protein remaining % ≤80%),B (80%< substrate protein remaining % ≤100%),B (80%< substrate protein remaining % ≤100%),B (80%< substrate protein remaining % ≤100%),B (80%< substrate protein remaining % ≤100%),A (0% ≤ substrate protein remaining % ≤80%)
"O=C1CCN(N2Cc3cc(CN4C[C@H]5C[C@@H]4CN5c4cccc(Cl)c4Cl)ccc3C2=O)C(=O)N1 [GT-07427, 1-(5-(((1R,4R)-5-(2,3-dichlorophenyl)-2,5-diazabicyclo[2.2.1]heptan-2-yl)methyl)-1-oxoisoindolin-2-yl)dihydropyrimidine-2,4(1H,3H)-dione]",B (80%< substrate protein remaining % ≤100%),A (0% ≤ substrate protein remaining % ≤80%),A (0% ≤ substrate protein remaining % ≤80%),A (0% ≤ substrate protein remaining % ≤80%),A (0% ≤ substrate protein remaining % ≤80%),B (80%< substrate protein remaining % ≤100%)

# Source: patent publication US20260356819A1, “OXOISOINDOLINYL-SUBSTITUTED […] DERIVATIVE AND USE THEREOF” (GLUETACS THERAPEUTICS (SHANGHAI) CO., LTD., priority 2023, published 2026)
